Measurements published in US11279733B2, “Peptide antibiotics” (priority 2017, dated 2022).
≈ marks a conversion by molar mass, not a printed value. Positions of bridges follow the written chain, without caps; N, C: chain ends. Non-standard residues stand in square brackets, D forms with d. Residues, ends and D or L forms follow the SMILES beside them. *: point of attachment. Decanoyl(3R-OH) = CCCCCCC[C@@H](O)CC(=O)*; dDab = NCC[C@@H](N)C(=O)O; Orn = NCCC[C@H](N)C(=O)O; Dab = NCC[C@H](N)C(=O)O

Experiments:
[1] = tested on: Neisseria gonorrhoeae; test: MIC determination, Neisseria gonorrhoeae; assay type: cell-based; details: for MIC N. gonorrhoeae F89: strain F89; for MIC N. gonorrhoeae FA19 ATCC BAA-1838: strain FA19 ATCC BAA-1838; for MIC N. gonorrhoeae FA1090 A25 ATCC 700825: strain FA1090 A25 ATCC 700825; for MIC N. gonorrhoeae H041: strain H041
In short: (§1)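 Mid-log cultures grown in Mueller Hinton broth at 37° C were tested by 2-fold broth microdilution at 5×10^5 CFU/mL final. Compounds were dissolved in water and tested over a final range of 32 to 0.015 μg/mL.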

[2] = In vitro nephrotoxicity, GGT release from primary human kidney cells; assay type: cell-based; details: pH 7.4
From the text: (§2) hPT cells were derived from whole human kidneys procured by the International Institute for the Advancement of Medicine (Edison, N.J., USA). All tissue was scored by a pathologist as normal (i.e., derived from non-cancerous, non-diseased tissue). Cell isolation procedures were based on those originally described by Todd et al. (1996) and modified (Cummings and Lash, 2000; Cummings et al., 2000) with use of sterile conditions (i.e., all instruments and glassware were autoclaved and all buffers were filtered through a 0.2-μm pore-size filter). Renal cortex and outer stripe were cut into slices, washed with sterile PBS, minced, and the pieces were placed in a trypsinization flask filled with 300 ml of sterile, filtered Hanks' buffer, containing 25 mM NaHCO3, 25 mM HEPES, pH 7.4, 0.5 mM EGTA, 0.2% (w/v) bovine serum albumin, 50 μg/ml gentamicin, 1.3 mg/mL collagenase, and 0.59 mg/ml CaCl2), which was filtered prior to use. Whole kidneys were perfused with Wisconsin medium and kept on ice until they arrived at the laboratory, which was usually within 24 h of removal from the donor.
(§3) All buffers were continuously bubbled with 95% O2/5% CO2 and were maintained at 37° C. Minced cortical pieces from whole kidneys were subjected to collagenase digestion for 60 min, after which the supernatant was filtered through a 70-μm mesh filter to remove tissue fragments, centrifuged at 150×g for 7 min, and the pellet resuspended in Dulbecco's Modified Eagle's Medium: Ham's F12 Medium (DMEM/F12; 1/1). Approximately 5 to 7×10^6 cells were obtained per 1 g of human kidney cortical tissue.
(§4) hPT cells were resuspended in 2 mL of DMEM/F12 and diluted to 500 mL with cell culture medium, which was serum-free and hormonally-defined. Composition of this supplemented medium was based on earlier work establishing optimal conditions for primary culture of rat PT cells (Lash et al., 1995). Basal medium was a 1:1 mixture of DMEM/F12. […] Cells were seeded in a volume of 0.5 ml at a density of 50-100 μg protein per cm^2 (0.5-1.0×10^6 cells/ml) on 24-well plates. Cultures were grown at 37° C. in a humidified incubator under an atmosphere of 95% air/5% CO2 at pH 7.4. Cultures were grown to approximately 80%-90% confluence (generally 5-6 days) prior to experiments. Cells were harvested by either scraping the flasks with a Teflon scraper or by brief incubation with Cellstripper (Cellgro, Herndon, Va., USA) (in Ca^2+- and Mg^2+-free Hanks' buffer).
Release of gamm-glutanyltransferase was assessed according to Orlowski, M., Meister, A. 1963. γ-Glutamyl-p-nitroanilide: A new convenient substrate for determination and study of L- and D-γ-glutamyltranspeptidase activities (Biochim. Biophys. Acta 73: 679-681.)
A 2.5 mM substrate Solution was prepared from 67 mg γ-glutamyl-p-nitroanilide+264 mg glycylglycine in 100 mL of 0.05 M Tris, pH 8.2 (50 mM Tris, pH 8.2: 605 mg Tris/HCl per 100 mL).
For the assay in 96-well plates, 6-μL of sample and 0.3 mL substrate solution were added to each well. The absorbance was measured at 410 nm for the appearance of product, p-nitroanilide (molar extinction=8800 M^−1 cm^−1).

[3] = In vitro nephrotoxicity, LDH release from primary human kidney cells; assay type: cell-based; details: pH 7.4
From the text: as §2, §3, §4

[4] = tested on: K. pneumoniae ATCC 13883; details: ATCC 13883
In short: as §1

[5] = tested on: P. aeruginosa ATCC 27853; details: ATCC 27853
In short: as §1

[6] = tested on: K. pneumoniae ATCC BAA-2146, NDM-1 pos; details: ATCC BAA-2146
In short: as §1

[7] = tested on: S. aureus ATCC 25923, MSSA; details: ATCC 25923
In short: as §1

[8] = tested on: A. baumannii GN_093 PmxR; details: GN 093 PmxR
In short: as §1

[9] = tested on: K. pneumoniae GN_102 PmxR; details: GN 102 PmxR
In short: as §1

[10] = tested on: K. pneumoniae ATCC 700603, MDR; details: ATCC 700603
In short: as §1

[11] = tested on: A. baumannii ATCC 19606; details: ATCC 19606
In short: as §1

[12] = tested on: P. aeruginosa GN_105, PmxR; details: GN 105, PmxR
In short: as §1

[13] = tested on: E. coli ATCC 25922; details: ATCC 25922
In short: as §1

[14] = tested on: P. aeruginosa GN_043, PmxR; details: polymyxin-resistant
In short: as §1

[15] = tested on: K. pneumoniae GN_106, PmxR; details: GN 106, PmxR
In short: as §1

CCCCCCC[C@@H](O)CC(=O)N[C@H](CCN)C(=O)N[C@H]1CCNC(=O)[C@H](CC(C)C)NC(=O)[C@H](CCN)NC(=O)[C@H](CCCN)NC(=O)[C@H](CC(C)C)NC(=O)[C@@H](Cc2ccccc2)NC(=O)[C@H](CCN)NC1=O [compound 991, 3(R)OH-nC9CO-D-Dab-cyc[L-Dab-L-Dab-D-Phe-L-Leu-L-Orn-L-Dab-L-Leu]] ({Decanoyl(3R-OH)}-[dDab][Dab][Dab][dF]L[Orn][Dab]L; lactam 2-C)
MIC N. gonorrhoeae F89 [1]: 1.3 µg/mL (≈ 1.23 µM) | MIC N. gonorrhoeae FA19 ATCC BAA-1838 [1]: 0.39 µg/mL (≈ 0.368 µM) | MIC N. gonorrhoeae FA1090 A25 ATCC 700825 [1]: 1.56 µg/mL (≈ 1.47 µM) | MIC N. gonorrhoeae H041 [1]: 2.08 µg/mL (≈ 1.97 µM) | CC50 [2]: > 128 µg/mL | CC50 [3]: 107 µg/mL (≈ 101 µM) | MIC, K. pneumoniae ATCC 13883 [4]: 4 µg/mL (≈ 3.78 µM) | MIC, P. aeruginosa ATCC 27853 [5]: 2 µg/mL (≈ 1.89 µM) | MIC, K. pneumoniae ATCC BAA-2146, NDM-1 pos [6]: 4 µg/mL (≈ 3.78 µM) | MIC, S. Aureus ATCC 25923, MSSA [7]: 8 µg/mL (≈ 7.56 µM) | MIC, A. baumannii Cl Ptyela 10073 4512:2, PmxR [8]: 8 µg/mL (≈ 7.56 µM) | MIC, K. pneumoniae Cl Koprana 10065 0661:1, PmxR [9]: 1 µg/mL (≈ 0.945 µM) | MIC, K. pneumoniae ATCC 700603, MDR [10]: 4 µg/mL (≈ 3.78 µM) | MIC, A. baumannii ATCC 19606 [11]: 4 µg/mL (≈ 3.78 µM) | MIC, P. aeruginosa PA9704, PmxR [12]: 1 µg/mL (≈ 0.945 µM) | MIC, E. coli ATCC 25922 [13]: 4 µg/mL (≈ 3.78 µM) | MIC, P. aeruginosa FADDI-PA070, PmxR ([14]; Table 5): 2 µg/mL (≈ 1.89 µM) | MIC, K. pneumoniae Cl 138-16347-20362, PmxR [15]: 2 µg/mL (≈ 1.89 µM)

CCCCCCC[C@@H](O)CC(=O)N[C@H](CCN)C(=O)N[C@H]1CCNC(=O)[C@H](Cc2c[nH]c3ccccc23)NC(=O)[C@H](CCN)NC(=O)[C@H](CCN)NC(=O)[C@H](CC(C)C)NC(=O)[C@@H](Cc2ccccc2)NC(=O)[C@H](CCN)NC1=O [compound 6509, 3(R)OH-nC9CO-D-Dab-cyc[L-Dab-L-Dab-D-Phe-L-Leu-L-Dab-L-Dab-L-Trp]] ({Decanoyl(3R-OH)}-[dDab][Dab][Dab][dF]L[Dab][Dab]W; lactam 2-C)
MIC N. gonorrhoeae F89 [1]: 1.04 µg/mL (≈ 0.931 µM) | MIC N. gonorrhoeae FA19 ATCC BAA-1838 [1]: 0.78 µg/mL (≈ 0.698 µM) | MIC N. gonorrhoeae FA1090 A25 ATCC 700825 [1]: 0.65 µg/mL (≈ 0.582 µM) | MIC N. gonorrhoeae H041 [1]: 1.69 µg/mL (≈ 1.51 µM) | CC50 [2]: > 128 µg/mL | CC50 [3]: > 128 µg/mL | MIC K. pneumoniae ATCC 13883 [4]: 4 µg/mL (≈ 3.58 µM) | MIC P. aeruginosa ATCC 27853 [5]: 2 µg/mL (≈ 1.79 µM) | MIC K. pneumoniae ATCC BAA-2146, NDM-1 pos [6]: 4 µg/mL (≈ 3.58 µM) | MIC S. aureus ATCC 25923, MSSA [7]: 4 µg/mL (≈ 3.58 µM) | MIC A. baumannii GN_093 PmxR [8]: 8 µg/mL (≈ 7.16 µM) | MIC K. pneumoniae GN_102 PmxR [9]: 4 µg/mL (≈ 3.58 µM) | MIC K. pneumoniae ATCC 700603, MDR [10]: 2 µg/mL (≈ 1.79 µM) | MIC A. baumannii ATCC 19606 [11]: 8 µg/mL (≈ 7.16 µM) | MIC P. aeruginosa GN_105, PmxR [12]: 1 µg/mL (≈ 0.895 µM) | MIC E. coli ATCC 25922 [13]: 4 µg/mL (≈ 3.58 µM) | MIC P. aeruginosa GN_043, PmxR [14]: 1 µg/mL (≈ 0.895 µM) | MIC K. pneumoniae GN_106, PmxR [15]: 4 µg/mL (≈ 3.58 µM)
